The values below come from patent US9371336B2, “Compounds for treating spinal muscular atrophy” (PTC Therapeutics Inc., priority 2012, dated 2016).

As a reminder, the melting point is the temperature of the solid-liquid transition.

The subject of data set [1] is SMN2 minigene mRNA (SMN2-A minigene construct). In words: SMN2 minigene mRNA splicing RT-qPCR assay in cultured cells. Type of data set: cell-based, human. The settings on record: Homo sapiens, HEK293-H; HEK293H cells stably transfected with SMN2-A minigene, 24 hours, 7-point concentration data; concentration giving 1.5-fold SMN2 full length mRNA relative to vehicle-treated cells; read-out: EC1.5x for production of full length SMN2 mRNA. In outline: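 Full-length SMN2 minigene mRNA, measured by exon 7/luciferase-specific RT-qPCR that excludes endogenous SMN1/SMN2, was normalized to GAPDH and expressed relative to vehicle-treated cells via modified ΔΔCt. Stably transfected HEK293H cells received compound (7-point, 3.16-fold series, duplicates) for 24 h at 37 °C.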
Background: Quantitative PCR measures a nucleic acid by following its amplification.

The subject of the next data set is Smn protein. Description: Smn protein assay (HTRF) in cultured cells (SMA patient fibroblasts GM03813). Type of data set: cell-based, human. The settings on record: 48 hours; for EC1.5x for Smn protein expression: SMA patient fibroblast cells (GM03813), HTRF, 7-point concentration data, concentration producing 1.5 times Smn protein vs DMSO vehicle control; for maximum fold (Fold) increase of Smn protein: SMA patient fibroblast cells, 7-point concentration curve, relative to vehicle control. In outline:
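Smn level is expressed as fold over vehicle, from blank-corrected ΔF of the 665/620 nm HTRF ratio. Readout used anti-SMN d2 and kryptate antibodies on RIPA lysates. GM03813 SMA fibroblasts had 48 h exposure at 37° C to seven 3.16-fold compound dilutions, run in triplicate.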
On the technique in general: Time-resolved FRET reads energy transfer from a long-lived donor to a nearby acceptor.

Bounds are passed on as bounds.

Regarding `Cc1ccn2cc(-c3cc4ccc(N5CCN(C)CC5)nc4oc3=O)nc2c1` [Cpd 39, 3-(7-methylimidazo[1,2-a]pyridin-2-yl)-7-(4-methylpiperazin-1-yl)-2H-pyrano[2,3-b]pyridin-2-one], the melting point lay within 264 to 268 °C. In data set [1], the EC (1.5-fold) is at most 0.1 µM. For the same molecule, in the data set with Smn protein, the “EC1.5x for Smn protein expression” value is on record as “**** (an EC1.5×≦0.3 μM is indicated by four stars (****))”; the “maximum fold (Fold) increase of Smn protein” value (“maximum fold (Fold) increase” for short) is “**** (a fold increase between >1.5 and ≦1.65 is indicated by four stars (****))”.
For the molecule `Cc1cn2cc(-c3cc4cnc(N5CCN(C)CC5)cc4oc3=O)nc2s1` [Cpd 55, 3-(2-methylimidazo[2,1-b][1,3]thiazol-6-yl)-7-(4-methylpiperazin-1-yl)-2H-pyrano[3,2-c]pyridin-2-one], the melting point is 282 to 286 °C. Also, the EC (1.5-fold) in data set [1] was 1 to 3 µM. Further, in the data set with Smn protein, the “EC1.5x for Smn protein expression” value is “** (an EC1.5× between >1 and ≦3 μM is indicated by two stars (**))”; the “maximum fold (Fold) increase” value was “*** (a fold increase between >1.35 and ≦1.5 is indicated by three stars (***))”.
`C[C@@H]1CN(C)[C@@H](C)CN1c1ccc2cc(-c3nc4c(Cl)cccc4s3)c(=O)oc2n1` [Cpd 86, 3-(4-chloro-1,3-benzothiazol-2-yl)-7-[(2R,5S)-2,4,5-trimethylpiperazin-1-yl]-2H-pyrano[2,3-b]pyridin-2-one]: the melting point was in the range of 233 to 234 °C. For the same molecule, the EC (1.5-fold) in data set [1] was 0.3 to 1 µM. Moreover, the “maximum fold (Fold) increase” value in the data set with Smn protein was “** (a fold increase between >1.2 and ≦1.35 is indicated by two stars (**))”.
Take `Cl.O=c1oc2nc(N3CCNCC3)ccc2cc1-c1nc(C(F)(F)F)cs1` [Cpd 16, 7-(piperazin-1-yl)-3-[4-(trifluoromethyl)-1,3-thiazol-2-yl]-2H-pyrano[2,3-b]pyridin-2-one hydrochloride]: the melting point fell in the range of 274 to 280 °C. Also, the EC (1.5-fold) in data set [1] lay within 1 to 3 µM. Besides, in the data set with Smn protein, the “maximum fold (Fold) increase” value is given as “* (A maximum fold increase ≦1.2 is indicated by one star (*))”.
Regarding `CCCN1CCN(c2ccc3cc(-c4nc(C)cs4)c(=O)oc3n2)CC1` [Cpd 21, 3-(4-methyl-1,3-thiazol-2-yl)-7-(4-propylpiperazin-1-yl)-2H-pyrano[2,3-b]pyridin-2-one], the melting point lay in the range of 210 to 214 °C. In addition, the EC (1.5-fold) in data set [1] is 3 to 30 µM. The “maximum fold (Fold) increase” value in the data set on Smn protein is “* (A maximum fold increase ≦1.2 is indicated by one star (*))”.
`Cl.O=c1oc2nc(N3CCCNCC3)ccc2cc1-c1cn2ccsc2n1` [Cpd 32, 7-(1,4-diazepan-1-yl)-3-(imidazo[2,1-b][1,3]thiazol-6-yl)-2H-pyrano[2,3-b]pyridin-2-one hydrochloride] displayed a melting point of 267 to 269 °C. Besides, in data set [1], the EC (1.5-fold) is at most 0.1 µM. The “maximum fold (Fold) increase” value in the data set with Smn protein is “*** (a fold increase between >1.35 and ≦1.5 is indicated by three stars (***))”.
The molecule `Cc1cn2cc(-c3cc4ccc(N5CCCN(C)CC5)nc4oc3=O)nc2cn1` [Cpd 105, 7-(4-methyl-1,4-diazepan-1-yl)-3-(6-methylimidazo[1,2-a]pyrazin-2-yl)-2H-pyrano[2,3-b]pyridin-2-one] returned a melting point of 290 to 293 °C. Moreover, in data set [1], the EC (1.5-fold) was at most 0.1 µM. In the data set with Smn protein, the “EC1.5x for Smn protein expression” value is “** (an EC1.5× between >1 and ≦3 μM is indicated by two stars (**))”; the “maximum fold (Fold) increase” value is “*** (a fold increase between >1.35 and ≦1.5 is indicated by three stars (***))”.
Molecule `Cc1cn2cc(-c3cc4ccc(N5C[C@H](C)N(C)C[C@H]5C)nc4oc3=O)nc2c(C)n1` [Cpd 123, 3-(6,8-dimethylimidazo[1,2-a]pyrazin-2-yl)-7-[(2R,5S)-2,4,5-trimethylpiperazin-1-yl]-2H-pyran[2,3-b]pyridin-2-one] registered a melting point of 234 to 236 °C. In addition, the EC (1.5-fold) in data set [1] fell in the range of 0.1 to 0.3 µM. Also, in the data set on Smn protein, the “EC1.5x for Smn protein expression” value is “*** (an EC1.5× between >0.3 μM and ≦1 μM is indicated by three stars (***))”; the “maximum fold (Fold) increase” value was “**** (a fold increase between >1.5 and ≦1.65 is indicated by four stars (****))”.
`CN1CCN(c2cc3oc(=O)c(-c4nc5c(Cl)cccc5s4)cc3cn2)CC1` [Cpd 11, 3-(4-chloro-1,3-benzothiazol-2-yl)-7-(4-methylpiperazin-1-yl)-2H-pyrano[3,2-c]pyridin-2-one] yielded a melting point of 285 to 288 °C. For the same molecule, in data set [1], the EC (1.5-fold) fell in the range of 0.3 to 1 µM. Besides, the “maximum fold (Fold) increase” value in the data set on Smn protein is “* (A maximum fold increase ≦1.2 is indicated by one star (*))”.
The corresponding values for `Cl.O=c1oc2cc(N3CCNCC3)ncc2cc1-c1nc2c(Cl)cccc2s1` [Cpd 9, 3-(4-chloro-1,3-benzothiazol-2-yl)-7-(piperazin-1-yl)-2H-pyrano[3,2-c]pyridin-2-one hydrochloride] are 266 to 270 °C, 0.1 to 0.3 µM and “* (A maximum fold increase ≦1.2 is indicated by one star (*))”.
For the molecule `Cc1ccn2cc(-c3cc4ccc(N5CCNCC5)nc4oc3=O)nc2c1.Cl` [Cpd 29, 3-(7-methylimidazo[1,2-a]pyridin-2-yl)-7-(piperazin-1-yl)-2H-pyrano[2,3-b]pyridin-2-one hydrochloride], the melting point is 240 to 244 °C. Further, the EC (1.5-fold) in data set [1] was at most 0.1 µM. Moreover, the “maximum fold (Fold) increase” value in the data set with Smn protein is “*** (a fold increase between >1.35 and ≦1.5 is indicated by three stars (***))”.
Consider `CCN1CCN(c2ccc3cc(-c4nc5ccccc5s4)c(=O)oc3n2)CC1` [Cpd 17, 3-(1,3-benzothiazol-2-yl)-7-(4-ethylpiperazin-1-yl)-2H-pyrano[2,3-b]pyridin-2-one], for which the melting point is 254 to 257 °C. The EC (1.5-fold) in data set [1] lay in the range of 0.3 to 1 µM. Moreover, the “maximum fold (Fold) increase” value with Smn protein is “*** (a fold increase between >1.35 and ≦1.5 is indicated by three stars (***))”.
As to `CCN1[C@H](C)CN(c2ccc3cc(-c4cn5ccccc5n4)c(=O)oc3n2)C[C@@H]1C` [Cpd 129, 7-[(3R,5S)-4-ethyl-3,5-dimethylpiperazin-1-yl]-3-(imidazo[1,2-a]pyridin-2-yl)-2H-pyrano[2,3-b]pyridin-2-one], the melting point lay within 281 to 284 °C. The EC (1.5-fold) in data set [1] was at most 0.1 µM. Besides, in the data set with Smn protein, the “EC1.5x for Smn protein expression” value is “**** (an EC1.5×≦0.3 μM is indicated by four stars (****))” and the “maximum fold (Fold) increase” value is “***** (a fold increase >1.65 is indicated by five stars (*****))”.
`Cc1cc(F)c2nc(-c3cc4ccc(N5C[C@H](C)NC[C@H]5C)nc4oc3=O)cn2c1` [Cpd 122, 7-[(2R,5S)-2,5-dimethylpiperazin-1-yl]-3-(8-fluoro-6-methylimidazo[1,2-a]pyridin-2-yl)-2H-pyrano[2,3-b]pyridin-2-one] showed a melting point of 195 to 198 °C. The EC (1.5-fold) in data set [1] is at most 0.1 µM. Besides, in the data set on Smn protein, the “EC1.5x for Smn protein expression” value is listed as “**** (an EC1.5×≦0.3 μM is indicated by four stars (****))”; the “maximum fold (Fold) increase” value was “**** (a fold increase between >1.5 and ≦1.65 is indicated by four stars (****))”.
Molecule `Cc1ccc2nc(-c3cc4ccc(N5CCCN(C)CC5)nc4oc3=O)cn2c1` [Cpd 116, 7-(4-methyl-1,4-diazepan-1-yl)-3-(6-methylimidazo[1,2-a]pyridin-2-yl)-2H-pyrano[2,3-b]pyridin-2-one] registered a melting point of 233 to 236 °C. Besides, the EC (1.5-fold) in data set [1] is at most 0.1 µM. In addition, in the data set on Smn protein, the “EC1.5x for Smn protein expression” value is “*** (an EC1.5× between >0.3 μM and ≦1 μM is indicated by three stars (***))”; the “maximum fold (Fold) increase” value was “*** (a fold increase between >1.35 and ≦1.5 is indicated by three stars (***))”.
`CCN1CCCN(c2ccc3cc(-c4cn5cccc(F)c5n4)c(=O)oc3n2)CC1` [Cpd 139, 7-(4-ethyl-1,4-diazepan-1-yl)-3-(8-fluoroimidazo[1,2-a]pyridin-2-yl)-2H-pyrano[2,3-b]pyridin-2-one] showed a melting point of 189 to 191 °C. Besides, the EC (1.5-fold) in data set [1] is at most 0.1 µM. For the same molecule, in the data set with Smn protein, the “EC1.5x for Smn protein expression” value was “**** (an EC1.5×≦0.3 μM is indicated by four stars (****))”; the “maximum fold (Fold) increase” value was “**** (a fold increase between >1.5 and ≦1.65 is indicated by four stars (****))”.
In turn, `CCN1CCN(c2ccc3cc(-c4cn5cc(C)ccc5n4)c(=O)oc3n2)CC1` [Cpd 130, 7-(4-ethylpiperazin-1-yl)-3-(6-methylimidazo[1,2-a]pyridin-2-yl)-2H-pyrano[2,3-b]pyridin-2-one] registered a melting point of 235 to 237 °C. In data set [1], the EC (1.5-fold) lay within 0.1 to 0.3 µM. Besides, in the data set with Smn protein, the “EC1.5x for Smn protein expression” value was “* (An EC1.5× for Smn protein expression between >3 μM and ≦10 μM is indicated by one star (*))”; the “maximum fold (Fold) increase” value was “*** (a fold increase between >1.35 and ≦1.5 is indicated by three stars (***))”.
Consider `CC(C)N1CCN(c2ccc3cc(-c4nc5c(Cl)cccc5s4)c(=O)oc3n2)CC1` [Cpd 23, 3-(4-chloro-1,3-benzothiazol-2-yl)-7-[4-(propan-2-yl)piperazin-1-yl]-2H-pyrano[2,3-b]pyridin-2-one], for which the melting point lay in the range of 230 to 234 °C. Besides, in data set [1], the EC (1.5-fold) lay in the range of 0.3 to 1 µM. For the same molecule, in the data set on Smn protein, the “maximum fold (Fold) increase” value is “** (a fold increase between >1.2 and ≦1.35 is indicated by two stars (**))”.
